Results taken from US7820714B2, “Siglec inhibitors” (priority 2001, dated 2010).

How the values were obtained:
Siglec-2 (murine CD22) = target: T1, Siglec-2 (murine CD22) (Mus musculus, UniProt P35329); assay: Hapten inhibition assay, Siglec-2 (murine CD22); type: binding; settings: for Siglec-2 (murine CD22) rIP: quotient IC50 reference compound / IC50 compound; for IC50: unit inferred
T1 sequence (P35329 22-148 limits assumed): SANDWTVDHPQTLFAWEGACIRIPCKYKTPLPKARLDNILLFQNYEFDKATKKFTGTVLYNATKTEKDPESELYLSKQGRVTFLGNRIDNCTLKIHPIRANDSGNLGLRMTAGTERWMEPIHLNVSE
Description: (§2) Preferably, the inhibition can be determined by a Hapten inhibition test. […] After overnight incubation at 4° C. the unbound complexes are removed by washing the cells and the bound radioactivity is determined. From the data obtained in this way, the concentrations are found which lead to 50% inhibition of the binding (IC50 values) (5, 6). Specially preferred during the Hapten inhibition test was 10 μl of the complex solution with an activity of 10^3 Bq ^125I mixed with the same volume of a solution of the substance to be investigated (concentrated three times) and incubated at 4° C. for one hour. Then followed the addition of 10 μl of a suspension of target cells, preferably 0.25 to 0.5% of human erythrocytes and incubation overnight at 4° C. The unbound radioactivity is removed by washing the cells five times with 200 μl of washing buffer, preferably phosphate-buffered saline with 0.1% (W/V) bovine serum albumin, and the cell-bound activity is determined with a γ-counter. […] The inhibition is determined in that the value without inhibitor is set to 0% and that with the sialidase-treated cells is set equal to 100%.
(§3) The IC50 value is the siglec inhibitor concentration which leads to 50% inhibition in the binding in the Hapten inhibition assay.

[1] = system: primary B-lymphocytes from human blood; assay: Ca2+ concentration in primary B-lymphocytes stimulated with anti-IgM; type: cell-based
Excerpt: (§1) The compound BPC-Neu5Ac (shown below) was used according to known methods in test series for the investigation of the selectivity and the activity. […] This impairment with regard to the binding of ligands leads to an incomplete activation of the intracellular inhibitor domain of CD22.

Daudi cells = assay: Ca2+ concentration in Daudi cells stimulated with anti-IgM; type: cell-based; settings: Daudi cells stimulated with anti-IgM in the presence of the compound
Excerpt: as §1

Siglec-2 (human CD22) = target: T2, Siglec-2 (human CD22) (Homo sapiens, UniProt P20273); assay: Hapten inhibition assay, Siglec-2 (human CD22); type: binding; settings: for Siglec-2 (human CD22) rIP: quotient IC50 reference compound / IC50 compound; for IC50: unit inferred
T2 sequence (P20273 20-138 limits assumed): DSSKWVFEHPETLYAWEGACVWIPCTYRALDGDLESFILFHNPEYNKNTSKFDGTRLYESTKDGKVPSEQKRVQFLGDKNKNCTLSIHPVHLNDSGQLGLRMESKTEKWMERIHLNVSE

Siglec-4a (MAG) = target: T3, Siglec-4a (MAG) (UniProt P20917); assay: Hapten inhibition assay, Siglec-4a (MAG); settings: for Siglec-4a (MAG) rIP: quotient IC50 reference compound / IC50 compound; for IC50: read-out: Siglec-4a (MAG) IC50, unit inferred
T3 sequence (P20917 1-627): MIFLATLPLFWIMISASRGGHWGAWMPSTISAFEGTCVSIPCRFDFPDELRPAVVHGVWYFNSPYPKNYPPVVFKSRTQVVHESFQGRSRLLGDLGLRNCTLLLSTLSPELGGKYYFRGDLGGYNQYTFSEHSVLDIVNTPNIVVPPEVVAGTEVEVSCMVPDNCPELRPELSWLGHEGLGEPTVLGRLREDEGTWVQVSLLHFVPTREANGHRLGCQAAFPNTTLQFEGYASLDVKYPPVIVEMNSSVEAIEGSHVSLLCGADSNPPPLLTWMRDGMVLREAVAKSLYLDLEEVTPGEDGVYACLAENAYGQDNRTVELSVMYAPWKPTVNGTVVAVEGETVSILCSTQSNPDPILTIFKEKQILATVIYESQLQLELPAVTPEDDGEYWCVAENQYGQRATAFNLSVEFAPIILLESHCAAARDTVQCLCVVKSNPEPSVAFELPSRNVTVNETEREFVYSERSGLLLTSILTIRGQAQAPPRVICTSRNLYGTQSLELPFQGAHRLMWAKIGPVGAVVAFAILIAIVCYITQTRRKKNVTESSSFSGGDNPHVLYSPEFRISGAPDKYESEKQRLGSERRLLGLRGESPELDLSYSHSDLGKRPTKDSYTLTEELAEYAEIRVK
Description: Preferably, the inhibition can be determined by a Hapten inhibition test. […] After overnight incubation at 4° C. the unbound complexes are removed by washing the cells and the bound radioactivity is determined. […] Then followed the addition of 10 μl of a suspension of target cells, preferably 0.25 to 0.5% of human erythrocytes and incubation overnight at 4° C. The unbound radioactivity is removed by washing the cells five times with 200 μl of washing buffer, preferably phosphate-buffered saline with 0.1% (W/V) bovine serum albumin, and the cell-bound activity is determined with a γ-counter. […] The inhibition is determined in that the value without inhibitor is set to 0% and that with the sialidase-treated cells is set equal to 100%.

Siglec-1 (sialoadhesin) = Siglec-1 (sialoadhesin) (Mus musculus, UniProt Q62230); assay: Hapten inhibition assay, Siglec-1 (sialoadhesin); type: binding; settings: for Siglec-1 (sialoadhesin) rIP: quotient IC50 reference compound / IC50 compound; for Siglec-1 (sialoadhesin) percentage in parentheses below the IC50 bound: at the concentration of the IC50 bound, meaning not defined in the patent
Sequence of Siglec-1 (sialoadhesin) (Q62230 20-136 limits assumed): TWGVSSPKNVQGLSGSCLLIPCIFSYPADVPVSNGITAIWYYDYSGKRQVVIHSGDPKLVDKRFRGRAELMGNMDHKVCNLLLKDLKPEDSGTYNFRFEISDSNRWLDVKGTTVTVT
Description: as §2, §3

| Compound | Siglec-2 (murine CD22) rIP (Siglec-2 (murine CD22)) | IC50 (Siglec-2 (murine CD22)) [µM] | Ca2+ concentration [1] | Ca2+ concentration (Daudi cells) | selectivity of affinity for hCD22 (Siglec-2 (human CD22); in words) | Siglec-2 (human CD22) rIP (Siglec-2 (human CD22)) | binds stronger to siglec-2 than the reference compound (Siglec-2 (human CD22); relative to 2-alpha-methyl-5-N-acetyl-neuraminic acid) | IC50 (Siglec-2 (human CD22)) [µM] | Siglec-4a (MAG) rIP (Siglec-4a (MAG)) | IC50 (Siglec-4a (MAG)) [µM] | Siglec-1 (sialoadhesin) rIP (Siglec-1 (sialoadhesin)) | IC50 (Siglec-1 (sialoadhesin); unit inferred) [mM] | Siglec-1 (sialoadhesin) percentage in parentheses below the IC50 bound (Siglec-1 (sialoadhesin)) | IC50 (Siglec-1 (sialoadhesin); bounds given in mM) [mM] |
| --- | --- | --- | --- | --- | --- | --- | --- | --- | --- | --- | --- | --- | --- | --- |
| CO[C@]1(C(=O)O)CC(O)[C@@H](NC(C)=O)C([C@@H](O)[C@H](O)CNC(=O)c2ccc(-c3ccccc3)cc2)O1 (stereo partly drawn) [Methyl-α-9-N-(biphenyl-4-carbonyl)-amino-9-desoxy-Neu5Ac] | 5.0 | 1220 | clearly increased Ca^2+ concentration | rise in the Ca^2+ concentration | very remarkable selective affinity for hCD22 | 150 | approximately 150 times | 4 | 218 | 22 | 13 | 0.052 |  |  |
| CO[C@]1(C(=O)O)C[C@H](O)[C@@H](NC(C)=O)[C@H]([C@H](O)[C@H](O)CNC(=O)C(c2ccccc2)c2ccccc2)O1 [Methyl-α-9-N-(diphenylacetyl)-amino-9-desoxy-Neu5Ac] |  | 103 |  |  |  |  |  | 35 | 31 | 150 | 0.2 | 4.4 |  |  |
| COc1ccc(C(=O)NC[C@@H](O)[C@@H](O)[C@@H]2O[C@@](OC)(C(=O)O)C[C@H](O)[C@H]2NC(C)=O)cc1 [Methyl-α-9-N-(4-methoxybenzoyl)-amino-9-desoxy-Neu5Ac] | 7.4 | 667 |  |  |  | 19 |  | 120 | 393 | 12 | 8.4 | 0.042 |  |  |
| Methyl-α-9-N-fluoresceinyl-amino-9-desoxy-Neu5Ac | 48 | 100 |  |  |  | 28 |  | 77 | 41 | 106 | <<0.5 |  | (121%) | > 1.5 |
| CO[C@]1(C(=O)O)C[C@H](O)[C@@H](NC(C)=O)[C@H]([C@H](O)[C@H](O)CNC(=O)C2CCCCC2)O1 [Methyl-α-9-N-cyclohexanoyl-amino-9-desoxy-Neu5Ac] | 6.9 | 760 |  |  |  | 4.1 |  | 383 | 50 | 110 | 0.2 |  | (93%) | > 1 |
| CO[C@]1(C(=O)O)C[C@H](O)[C@@H](NC(C)=O)[C@H]([C@H](O)[C@H](O)CNC(=O)Cc2ccc3ccccc3c2)O1 [Methyl-α-9-N-(naphthyl-2-acetyl)-amino-9-desoxy-Neu5Ac] | 83 | 71 |  |  |  | 131 |  | 8 | 13 | 367 | 0.5 | 1.75 |  |  |
